pEC50: −log10 of the molar value. Peptide text beside a SMILES is read from it.
What was measured:
PD1:PDL1 interaction = target: T1, PD1:PDL1 interaction (Homo sapiens, UniProt Q15116); assay: PD1/PDL1 immunoblocking ELISA (BPS Bioscience kit cat # 72005); type: binding; details: for LE (ligand efficiency): LE = -RTln(EC50)/HA, HA = non-hydrogen atoms omitting the strap (RWV•••VWE)
T1 construct: purchased BPS Bioscience 72005

[1] = Variable-temperature CD melting curves (CD-melts at 228±2 nm and 202±2 nm), individual and global two-state fits; type: physicochemical; details: for ΔGF0: CD-melt at 228±2 nm, individual two-state Gibbs-Helmholtz fit (Origin 9.0), phosphate buffer 15 mM pH 6.5 ± MeOH; for ΔGF0 / DHm (fitted value, results from OriginPro) / Tm (fitted value, results from OriginPro): 0-95 °C; for Tm / Hairpin %-fold 291K / Hairpin %-fold 310K: Table S5, individual fit; for Tm: 228±2 nm; for -TΔSF0 / ΔCpF0 / ΔHF0 / ΔHm: as E16; for VT-CD %-fold: folded fraction (χF) at 25 °C from CD-melts, (R) regular / (B) bulged fold; for VT-CD %-fold / VT-CD Tm (°C): phosphate buffer 15 mM pH 6.5, up to 20% MeOH; for Tm 228 nm Indiv.: exciton band 228 nm; for VT-CD Tm (°C): melting temperature from CD-melts; for DHm (fitted value, results from OriginPro) / Tm (fitted value, results from OriginPro): two-state fit of the CD melt θ - θcoil(95) vs T, peptide c 3.2e-5 to 5e-5 M; for %fold 291K: fraction folded at 291 K from the two-state fit of the CD melt
Summary of the method: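 Far-UV CD melts (0 to 95 °C) at 15-120 µM peptide in 15 mM phosphate buffer, concentration set by Trp/Tyr absorbance at 280 nm; CD-exciton intensity taken as %-folding probe. Melting curves fitted individually and globally to a two-state model.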

[2] = target: T2, cell surface PD1 on CD3+/CD8+ cells of h-PBMCs (Homo sapiens, UniProt Q15116); assay: In cellulo PD1 blockade on h-PBMCs by flow cytometry; type: cell-based; details: h-PBMC cultures, 30 h, n = 3
T2 construct: endogenous in cells; host or cells: healthy human PBMCs (CD45+, CD3+/CD8+ gated)
Description: (§1) Then, an ex vivo immune cell culture system using h-PBMCs and exhausted PBMCs from a melanoma patient (e-PBMCs) was used to determine the efficacy of selected ADAPTin peptides on T-effector cells (Fig. 6).[91,92] T-cell exhaustion typically leads to a reduction in cytokine release, cytotoxic activity, as well as slower T-cell proliferation.

e-PBMCs = assay: Ex vivo cytokine secretion assay, exhausted PBMCs from a melanoma patient; type: cell-based, human; details: e-PBMC, 6 h, LEGENDplex
Description: as §1, with “proliferation. […] Cytokines concentrations measured at 72 h post-treatment were in most cases over the detection limit range further indicating the effectiveness of our compounds over time.” for “proliferation.”
Non-covalent ADAPTin2c/2p were used as negative control. (A) Levels of inflammatory cytokines measured by flow-cytometry (FACS) after 6 h incubation with electrophilic ADAPTins. Error bars indicate the mean ± SD, (n = 3). (B) Rescue of exhausted PBMCs from a melanoma patient. Levels of inflammatory cytokines and granule-associated proteins released (6 h) measured by FACS (healthy and untreated exhausted PBMCs: h-/e-PBMCs used as positive and negative controls respectively). Error bars indicate the avg ± SD, (n = 2).
Ex Vivo Cytokine Secretion Assay.
Normal PBMCs (from healthy donor) and exhausted PBMCs isolated from the blood sample of a melanoma patient were activated for 48 h before using anti-CD2/28 monoclonal antibodies with IL-2 (2 ng/mL) as mentioned above. After 48 h, PBMCs were washed and incubated with a series of ADAPTins for 6 h. After treatment, media supernatant was collected for cytokine release measurements using the LEGENDplex™ human CD8/NK (13-plex) panel (BioLegend, cat no. 740267). Briefly, samples were mixed with assay buffer and human (13-plex) mixed-beads and plated on the 96-well filter plate. Samples were incubated for 2 h at room temperature, washed, and resuspended beads with detection antibodies according to manufacturer's protocol. Samples were transferred to a 96-well plate to read on a flow cytometer. The flow cytometer and data acquisition software setting were used according to the manufacturer's instructions. Flow analysis was obtained using a CytoFLEX-S flow cytometer equipped with 3 lasers (488 nm blue, 405 nm violet, and 638 nm from Beckman).
Table S9. Raw data of cytokine secretion assay (n=2).
Cytokine assay IL-2 TNF-α IFN-γ Perforin […]

T1 sequence (Q15116 25-167 limits assumed): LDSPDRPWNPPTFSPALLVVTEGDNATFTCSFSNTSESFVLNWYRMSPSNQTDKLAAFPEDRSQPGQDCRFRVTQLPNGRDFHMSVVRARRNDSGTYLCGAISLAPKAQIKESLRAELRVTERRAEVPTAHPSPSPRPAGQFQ
T2 sequence (Q15116 25-288): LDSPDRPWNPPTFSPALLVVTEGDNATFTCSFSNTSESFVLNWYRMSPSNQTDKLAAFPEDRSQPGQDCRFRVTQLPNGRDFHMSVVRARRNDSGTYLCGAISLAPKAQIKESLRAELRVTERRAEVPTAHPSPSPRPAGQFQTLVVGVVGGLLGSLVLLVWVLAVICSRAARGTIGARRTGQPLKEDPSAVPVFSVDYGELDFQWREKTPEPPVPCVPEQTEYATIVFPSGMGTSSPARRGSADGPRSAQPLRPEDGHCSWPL

CSCC[C@H](NC(=O)CNC(=O)[C@H](CCC(=O)O)NC(=O)[C@H](CCCNC(=N)N)NC(=O)[C@H](C)NC(=O)[C@@H](NC(=O)[C@H](Cc1c[nH]c2ccccc12)NC(=O)[C@@H](N)CCCNC(=N)N)C(C)C)C(=O)N[C@@H](CC(N)=O)C(=O)N[C@H](C(=O)N[C@@H](CC(=O)O)C(=O)N[C@@H](Cc1c[nH]c2ccccc12)C(=O)N[C@@H](Cc1ccc(O)cc1)C(=O)N[C@@H](Cc1ccccc1)C(=O)N[C@@H](CC(=O)O)C(=O)N[C@@H](Cc1ccc(O)cc1)C(=O)N[C@@H](Cc1c[nH]c2ccccc12)C(=O)N[C@@H](Cc1c[nH]cn1)C(=O)N[C@@H](Cc1c[nH]c2ccccc12)C(=O)N[C@@H](CCC(=O)O)C(=O)O)[C@@H](C)O [2n] (H-RWVAREGMNTDWYFDYWHWE-OH)
LE (ligand efficiency) (PD1:PDL1 interaction): 0.07
ΔGF0 [1]: 0.46 ± 0.01 kcal/mol
Tm [1]: -5.1 oC
Hairpin %-fold 291K ([1]; 291 K): 36 ± 2%
Hairpin %-fold 310K [1]: 23 ± 2%
-TΔSF0 [1]: 6.11 ± 0.19 kcal/mol
ΔCpF0 [1]: -97 ± 14 cal.deg-1.mol-1
ΔHF0 [1]: -5.65 ± 0.18 kcal/mol
ΔHm [1]: -2.75 ± 0.80 kcal/mol
VT-CD %-fold [1]: 36% (B)
χF (291 K) 228 nm Glob. ([1]; global fit, 228 nm, 291 K): 0%
χF (291 K) 228 nm Indiv. ([1]; individual fit, 228 nm, 291 K): 36%
Tm 228 nm Indiv. ([1]; individual fit): -5.1 oC
VT-CD Tm (°C) [1]: <0 °C
DHm (fitted value, results from OriginPro) ([1]; l 0.1 cm): -2.75455 kcal/mol
Tm (fitted value, results from OriginPro) ([1]; l 0.1 cm): 268.058 K

CSCC[C@H](NC(=O)CNC(=O)[C@H](CCC(=O)O)NC(=O)[C@H](CCCNC(=N)N)NC(=O)[C@H](C)NC(=O)[C@@H](NC(=O)[C@H](Cc1c[nH]c2ccccc12)NC(=O)[C@@H](N)CCCNC(=N)N)C(C)C)C(=O)N[C@@H](CC(N)=O)C(=O)N[C@H](C(=O)N[C@@H](CC(=O)O)C(=O)NCC(=O)N[C@@H](Cc1ccc(O)cc1)C(=O)N[C@@H](Cc1ccccc1)C(=O)N[C@@H](CC(=O)O)C(=O)N[C@@H](Cc1ccc(O)cc1)C(=O)N[C@@H](Cc1c[nH]c2ccccc12)C(=O)N[C@@H](Cc1c[nH]cn1)C(=O)N[C@@H](Cc1c[nH]c2ccccc12)C(=O)N[C@@H](CCC(=O)O)C(=O)O)[C@@H](C)O [2o] (H-RWVAREGMNTDGYFDYWHWE-OH)
LE (ligand efficiency) (PD1:PDL1 interaction): 0.07
ΔGF0 [1]: 0.47 ± 0.01 kcal/mol
Tm [1]: 2.8 oC
Hairpin %-fold 291K ([1]; 291 K): 36 ± 1%
Hairpin %-fold 310K [1]: 23 ± 1%
-TΔSF0 [1]: 6.45 ± 0.02 kcal/mol
ΔCpF0 [1]: -2 ± 1 cal.deg-1.mol-1
ΔHF0 [1]: -5.97 ± 0.01 kcal/mol
ΔHm [1]: -5.93 ± 0.03 kcal/mol
VT-CD %-fold [1]: 50% (B)
%fold 291K ([1]; l 0.1 cm): 36%
Tm 228 nm Glob. ([1]; global fit (shared maximum molar ellipticity), 228 nm): 14.6 oC
Tm 202 nm Glob. ([1]; global fit, 202 nm): -18.3 oC
χF (291 K) 202 nm Glob. ([1]; global fit, 202 nm, 291 K): 19%
χF (291 K) 228 nm Glob. ([1]; global fit, 228 nm, 291 K): 47%
χF (291 K) 202 nm Indiv. ([1]; individual fit, 202 nm, 291 K): 38%
χF (291 K) 228 nm Indiv. ([1]; individual fit, 228 nm, 291 K): 36%
Tm 228 nm Indiv. ([1]; individual fit): 2.8 oC
Tm 202 nm Indiv. ([1]; individual fit, β-bulge band 202 nm): 7.9 oC
VT-CD Tm (°C) [1]: 3 °C
DHm (fitted value, results from OriginPro) ([1]; l 0.1 cm): -5.92662 kcal/mol
Tm (fitted value, results from OriginPro) ([1]; l 0.1 cm): 275.984 K

CSCC[C@H](NC(=O)CNC(=O)[C@H](CCC(=O)O)NC(=O)[C@H](CCCNC(=N)N)NC(=O)[C@H](C)NC(=O)[C@@H](NC(=O)[C@H](Cc1c[nH]c2ccccc12)NC(=O)[C@@H](N)CCCNC(=N)N)C(C)C)C(=O)N[C@@H](CC(N)=O)C(=O)N[C@H](C(=O)N[C@@H](CC(=O)O)C(=O)NCC(=O)N[C@@H](Cc1ccc(O)cc1)C(=O)N[C@@H](Cc1ccccc1)C(=O)N[C@@H](CC(N)=O)C(=O)N[C@@H](Cc1ccc(O)cc1)C(=O)N[C@@H](Cc1c[nH]c2ccccc12)C(=O)N[C@H](C(=O)N[C@@H](Cc1c[nH]c2ccccc12)C(=O)N[C@@H](CCC(=O)O)C(=O)O)C(C)C)[C@@H](C)O [2p] (H-RWVAREGMNTDGYFNYWVWE-OH)
PD1 blockade on CD3+/CD8+ T-effector cells [2]: < 20%
pEC50 (PD1:PDL1 interaction): 6.80

CC[C@H](C)[C@H](NC(=O)[C@H](Cc1ccc(O)cc1)NC(=O)[C@H](Cc1c[nH]c2ccccc12)NC(=O)[C@H](Cc1ccc(O)cc1)NC(=O)[C@H](CC(N)=O)NC(=O)CNC(=O)[C@H](Cc1ccc(O)cc1)NC(=O)[C@H](C)NC(=O)[C@H](CCCNC(=N)N)NC(=O)[C@H](C)NC(=O)[C@@H](NC(=O)[C@H](Cc1c[nH]c2ccccc12)NC(=O)[C@@H](N)CCCNC(=N)N)C(C)C)C(=O)N[C@@H](CC(=O)O)C(=O)N[C@H](C(=O)N[C@@H](Cc1c[nH]c2ccccc12)C(=O)N[C@@H](Cc1c[nH]cn1)C(=O)N[C@@H](Cc1c[nH]c2ccccc12)C(=O)N[C@@H](CCC(=O)O)C(=O)O)C(C)C [2q] (H-RWVARAYGNYWYIDVWHWE-OH)
LE (ligand efficiency) (PD1:PDL1 interaction): 0.07
VT-CD %-fold [1]: β-structure
fold by CD signature (in words) ([1]; no hairpin exciton, no fit possible): β-sheet structure

CC[C@H](C)[C@H](NC(=O)[C@H](Cc1ccc(O)cc1)NC(=O)CNC(=O)[C@H](Cc1ccc(O)cc1)NC(=O)[C@H](CC(N)=O)NC(=O)CNC(=O)[C@H](Cc1ccc(O)cc1)NC(=O)[C@H](C)NC(=O)[C@H](CCCNC(=N)N)NC(=O)[C@H](C)NC(=O)[C@@H](NC(=O)[C@H](Cc1c[nH]c2ccccc12)NC(=O)[C@@H](N)CCCNC(=N)N)C(C)C)C(=O)N[C@@H](CC(=O)O)C(=O)N[C@H](C(=O)N[C@@H](Cc1c[nH]c2ccccc12)C(=O)N[C@@H](Cc1c[nH]cn1)C(=O)N[C@@H](Cc1c[nH]c2ccccc12)C(=O)N[C@@H](CCC(=O)O)C(=O)O)C(C)C [2r] (H-RWVARAYGNYGYIDVWHWE-OH)
LE (ligand efficiency) (PD1:PDL1 interaction): 0.08
ΔGF0 [1]: -1.15 ± 0.01 kcal/mol
Tm [1]: 67.6 oC
Hairpin %-fold 291K ([1]; 291 K): 91 ± 1%
Hairpin %-fold 310K [1]: 80 ± 1%
-TΔSF0 [1]: 7.13 ± 0.3 kcal/mol
ΔCpF0 [1]: -44 ± 9 cal.deg-1.mol-1
ΔHF0 [1]: -8.29 ± 0.3 kcal/mol
ΔHm [1]: -10.2 ± 0.2 kcal/mol
VT-CD %-fold [1]: 91% (B)
%fold 291K ([1]; c 6.2e-5 M, l 0.1 cm): 91%
DHm (fitted value, OriginPro) ([1]; two-state fit of the CD melt (θ - θcoil(95) vs T, 0-95 °C), l 0.1 cm, enthalpy of folding at Tm): -10.1866 kcal/mol

pembrolizumab: FDA-approved anti-PD1 antibody; 'Pem' = its CDR-H3 loop in Table 1 [reference compound]
IFN-γ (e-PBMCs; replicate 1): 4359.77 pg/mL
IL-2 (e-PBMCs; replicate 1): 0.44 pg/mL
Perforin (e-PBMCs; replicate 1): 227.36 pg/mL
TNF-α (e-PBMCs; replicate 1): 500.12 pg/mL
IFN-γ (e-PBMCs; replicate 2): 7617.66 pg/mL
IL-2 (e-PBMCs; replicate 2): 275.42 pg/mL
Perforin (e-PBMCs; replicate 2): 438.61 pg/mL
TNF-α (e-PBMCs; replicate 2): 1224.22 pg/mL
